Values after ≈ are worked out from the molar mass of the structure shown.
How the values were obtained:
HeLa = test: MTT cell proliferation assay, HeLa; assay type: cell-based; conditions: Homo sapiens, HeLa cervical cancer, 48 h
Method: (§1) The effects of the synthesized amide anthraquinone derivatives on the proliferative activity of eight human cancerous cell lines (EC9706, MCF-7, SGC-7901, HepG2, QBC939, HeLa, HCT116 and SW480) in addition to two normal human cell lines (colorectal FHC and liver HL7702) were evaluated using the standard MTT assay.
(§2) The human esophageal cancer cell line EC9706 was obtained from Cancer Hospital and Institute by Prof. Ming Rong Wang, Chinese Academy Medical of Sciences. The human colorectal carcinoma cell lines HCT116 and SW480, hepatoma cell line HepG2, cervical carcinoma cell line HeLa, breast cancer cell line MCF-7, gastric cancer cell line SGC-7901, cholangiocarcinoma cell line QBC939, normal fetal colon cell line FHC and liver cell line HL-7702 were obtained from the Cell Bank of the Shanghai Chinese Academy of Sciences. All cells were cultured in RPMI 1640 medium containing 100 U/mL penicillin and streptomycin and 10% fetal bovine serum and maintained at 37°C under a 5% CO2 atmosphere.
(§3) We analyzed the inhibitory effects of eight anthraquinone-amino acid derivatives on the proliferation of eight tumor cell lines and two normal cell lines in vitro using MTT assays. Cells were added to a 96-well plate with (5,000 cells per well in 100 µL RPMI-1640 medium). Cells were treated with different concentrations (10–100 μg/mL) of 8a–8h for 48 h and then incubated with 20 μL MTT (5 mg/mL) for another 4 h at 37°C. DMSO (150 μL) was then added to each well to dissolve the formazan crystals. The absorbance of each well was read at 490 nm on a microtiter plate ELISA reader. The mean values were obtained from a minimum of three parallel experiments. IC50 values were calculated.

cytochrome c = test: Western blot, cytochrome c in cytoplasm and mitochondria; assay type: cell-based, human; conditions: 10 or 20 μg/mL, 24 h, HCT116, western blot
Method: Decreased mitochondrial membrane potential is a hallmark of early cell apoptosis, and a decrease in mitochondrial membrane potential leads to the release of certain mitochondrial proteins, such as cytochrome c, which mediate apoptosis. Therefore, we examined changes in mitochondrial membrane potential by flow cytometry. HCT116 cells were treated with 8a (10 or 20 μg/mL) for 24 h and then stained with 2 μg/mL JC-1 for 30 min prior to flow cytometric analysis. Green /orange fluorescence ratio of JC-1, compare with control, is 200% and 494.4%, respectively (Figure 8E,F). […] During apoptosis, mitochondrial cytochrome C is released into the cytoplasm and triggers the activation cascade of caspase. HCT116 cells were collected after 8a treatment, cytoplasmic protein and mitochondrial protein were extracted. The levels of cytochrome c in the cytoplasm and mitochondria were detected by Western blotting. After treatment of HCT116 cells with 8a (10 or 20 μg/mL) for 24 h, cytoplasmic levels of cytochrome c increased, while the levels in the mitochondria decreased.
The expression of signaling pathway-related proteins was detected by western blot analysis. Cell (1 × 10^6) were plated in 90-mm dishes and treated with 8a for 24 h. The cells were treated with NAC in the same way as in step 4.7. […] Protein concentrations in the supernatant were determined by using a Minbio BCA protein assay kit. […]

JNK = test: Western blot, phosphorylated and total JNK; assay type: cell-based, human; conditions: HCT116, western blot
Excerpt: To further elucidate the mechanism by which 8a inhibits proliferation and induces apoptosis of HCT116 cells, the levels of phosphorylated and total JNK protein were examined by western blot analysis. […] Phosphorylation of JNK activated by the ROS pathway results in overexpression of tumor suppressor factors, thereby inducing apoptosis. In addition, JNK phosphorylation is associated with ROS production. To determine whether ROS production contributes to JNK1/2 phosphorylation and its related mechanisms, we blocked 8a-induced ROS production in HCT116 cells and then analyzed the changes in JNK 1/2 phosphorylation by western blotting. […] Furthermore, pre-treatment of cells with NAC reduced the levels of p-JNK induced by 8a.
The expression of signaling pathway-related proteins was detected by western blot analysis. Cell (1 × 10^6) were plated in 90-mm dishes and treated with 8a for 24 h. The cells were treated with NAC in the same way as in step 4.7. Resuspend the cells in Buffer A (1 mM EDTA, 1 mM PMSF, 0.28 μg/mL apotinin, 50 μg/mL leupeptin, 7 μg/mL pepstain A) and transferred to a 1 mL glass homogenizer and pull up and down 30 times in an ice bath. Cells were collected and centrifuged (1000 g × 10 min, 4 °C). The obtained supernatant and precipitate were the crude cytoplasm and mitochondria, respectively. The cytosolic fraction was transferred to an ultra-ion tube and centrifuged (100,000g × 1 hr, 4 °C), and the resulting supernatant was the purified cytosolic fraction. The mitochondrial pellet was resuspended in Buffer B (1mM EGTA, 1mM PMSF, 0.28 μg/mL apotinin, 50 μg/mL leupeptin, 7 μg/mL pepstain A), centrifuged (10,000g × 10 min, 4 °C), and repeated 3 times. The mitochondria pellet was lysed in cell lysate buffer (1% NP-40, 2 μg/mL aprotinin, 2 μg/mL leupeptin, 1mM EDTA, 1mM Na vanadate). Protein concentrations in the supernatant were determined by using a Minbio BCA protein assay kit. Protein were separated by SDS-PAGE and transferred to a PVDF membrane. The membrane was blocked, and incubated with primary detection antibodies overnight at 4 °C. […]

EC9708 = test: MTT cell proliferation assay, EC9706 (Table 1: EC9708); assay type: cell-based; conditions: Homo sapiens, EC9708 esophageal cancer, 48 h
Method: as §1, §2, §3

HCT116 cells = test: MTT cell viability with or without SP600125; assay type: cell-based, human; conditions: 8a alone, 24 h, compared with the control
Method: Furthermore, to further investigate whether activation of phosphorylated JNK affects cell viability, HCT116 was co-treated with 8a and SP600125 (JNK inhibitor), and the effect of phosphorylated JNK inactivation on HCT116 cell activity was examined by MTT. […] Following co-treatment with 8a and SP600126, the rate cell viability was 55%. The inhibitory proliferation activty of 8a were partially weakened by the usage of 5 μM Sp600125.
Figure 9 The effect of 8a treatment on phosphorylated JNK and JNK expression levels. (A) Western blot analysis of phosphorylated JNK and JNK expression levels of in HCT116 cells treated with 20 μg/mL 8a for time-periods; (B) The expression levels of the phospho-JNK proteins were determined after treatment of HCT116 cells with 20 μg/mL 8a with or without NAC. Data represent the mean ± standard deviation of three independent experiments; (C) Grayscale analysis of the relative protein level of phosphorylated JNK. Data represent the mean ± standard deviation of three independent experiments. * p < 0.05; (D) MTT assay of HCT116 cells viability following treatment with 8a and SP600125 for 24 h.

HepG2 = test: MTT cell proliferation assay, HepG2; assay type: cell-based; conditions: Homo sapiens, HepG2 liver cancer, 48 h
Method: as §1, §2, §3

IC50 (HeLa): 29.75 ± 0.15 mg/L (≈ 72.5 µM)
IC50 (HepG2): 44.65 ± 0.03 mg/L (≈ 109 µM)
Compound: CC(C)CC(NC(=O)c1ccc2c(c1[N+](=O)[O-])C(=O)c1ccccc1C2=O)C(=O)O (stereo not drawn) [Compound 8a, N-[(9,10-dihydro-1-nitro-9,10-dioxo-2-anthracenyl)carbonyl-leucine]]
cytochrome c levels in the mitochondria (cytochrome c): decreased
cytoplasmic levels of cytochrome c (cytochrome c): increased
levels of phosphorylated JNK (JNK; 20 μg/mL, time course): gradually increased with time
total JNK levels (JNK; 20 μg/mL, time course): not altered
levels of p-JNK induced by 8a after NAC pre-treatment (JNK; 8a 20 μg/mL with NAC pre-treatment): reduced
IC50 (EC9708): 44 ± 0.61 mg/L (≈ 107 µM)
cell viability (HCT116 cells): 39%
